# Values quoted from earlier work as cited in patent US20200399148A1, “METHOD AND APPARATUS FOR ELECTROCHEMICAL pH CONTROL” (BAR-ILAN UNIVERSITY, priority 2018, published 2020).
# Tested on: bacteria
# Conditions: relative to hypochlorous acid
compound,measurement,value
"OCl [OCl^−, hypochlorite anion]","bactericidal activity, times less than hypochlorous acid",80-120 time less
